In patent publication US20260285853A1, “COMPOUNDS AND METHODS FOR MODULATING SPLICING” (REMIX THERAPEUTICS INC., priority 2023, published 2026):
Read-outs that look alike come from different tables or passages of the source. Each block holds one molecule with its values, some of them ahead of it.

Columns and labels:
Type in all cases: cell-based
[1] = test system: HTT mRNA; assay: Splicing RT-qPCR assay (THP), Table 2A
[2] = test system: MYB mRNA; assay: Gene panel canonical junction qPCR assay, decrease in CJ mRNA, Table 3
Procedure, shortened: (§1)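 IC50 denotes the concentration giving 50% decrease in canonical-junction mRNA, fitted by 4-parameter logistic to percentage response derived from ΔΔCt versus housekeeping gene and DMSO control. Cells (A673 or K562) exposed 24 h to 11-point 3-fold serial dilutions from 10 uM top, DMSO ≤0.25%; junction-spanning primer/probe qPCR.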

[3] = test system: HTT mRNA; assay: as above
Procedure, shortened: as §1

[4] = test system: SH-SY5Y (human neuroblastoma) cells; assay: Cell viability, Cell Titer Glo 2.0 assay; settings: read-out: Viability SHSY5Y.3 GI50
Procedure, shortened: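 Viability was read by CellTiter-Glo 2.0 luminescence after a 72-hour compound exposure at 37° C. under 5% CO2. Cells were in IMDM plus 10% FBS containing 0.1% DMSO, and medium-only wells gave the blank.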

[5] = test system: MYB mRNA; assay: Splicing RT-qPCR assay (THP), Table 2A
[6] = Table 2A (THP), AJ mRNA increase, read-out: HTT AJ (increase in alternative junction mRNA, AC50)
[7] = Table 2A (THP), CJ mRNA decrease, read-out: HTT CJ (decrease in canonical junction mRNA, IC50)
[8] = decrease in canonical junction (CJ) mRNA, gene panel qPCR, Table 3
[9] = Table 2A (THP), AJ mRNA increase, read-out: MYB AJ (increase in alternative junction mRNA, AC50)
[10] = Table 2A (THP), CJ mRNA decrease, read-out: MYB CJ (decrease in canonical junction mRNA, IC50)
[11] = Table 2A, THP, HTT alternative junction (AJ) mRNA, read-out: HTT AJ (AC50, increase in alternative junction mRNA)
[12] = Table 2A, THP, HTT canonical junction (CJ) mRNA, read-out: HTT CJ (IC50, decrease in canonical junction mRNA)
[13] = decrease in CJ mRNA levels, canonical junction qPCR, gene panel
[14] = Table 2A, THP, MYB alternative junction (AJ) mRNA, read-out: MYB AJ (AC50, increase in alternative junction mRNA)
[15] = Table 2A, THP, MYB canonical junction (CJ) mRNA, read-out: MYB CJ (IC50, decrease in canonical junction mRNA)

SMILES: Cc1cc2cc(NC(=O)c3c(F)cc(N4CCC(NC5CC5)CC4)c4cn(C)nc34)sc2c(C)n1 [Compound 484, 4-[4-(cyclopropyl-amino)-1-piperidyl]-N-(5,7-dimethyl-thieno[2,3-c]pyridin-2-yl)-6-fluoro-2-methyl-indazole-7-carboxamide]
AC50 [1, 6]: > 10 µM | IC50 [1, 7]: > 10 µM | IC50 [2, 8]: > 10 µM | IC50 [3, 8]: > 10 µM | GI50 [4]: 1 to 10 µM | AC50 [5, 9]: > 10 µM | IC50 [5, 10]: > 10 µM

SMILES: COc1nc2c(C(=O)Nc3cc4cn(C)nc4nc3OC)ccc(N3C[C@H](C)N[C@@H](C)C3)c2s1 [Compound 809]
AC50 [1, 11]: > 10 µM | IC50 [1, 12]: > 10 µM | IC50 [2, 13]: 0.1 to 1 µM | IC50 [3, 13]: > 10 µM | GI50 [4]: 0.1 to 1 µM | AC50 [5, 14]: < 0.1 µM | IC50 [5, 15]: 0.1 to 1 µM

SMILES: COc1c(NC(=O)c2c(F)cc(N3CCC(NC4CC4)CC3)c3cn(C)nc23)cn2cc(C)nc2c1C [Compound 397, 4-[4-(cyclopropylamino)-1-piperidy1]-6-fluoro-N-(7-methoxy-2,8-dimethyl-imidazo[1,2-a]pyridin-6-y1)-2-methyl-indazole-7-carboxamide]
AC50 [1, 6]: > 10 µM | IC50 [1, 7]: > 10 µM | IC50 [2, 8]: 1 to 10 µM | IC50 [3, 8]: > 10 µM | GI50 [4]: 1 to 10 µM | AC50 [5, 9]: 1 to 10 µM | IC50 [5, 10]: 1 to 10 µM

SMILES: CC1OB(O)c2cc(NC(=O)c3c(F)cc(N4CCC(NC5CC5)CC4)c4cn(C)nc34)ccc21 (stereo not shown) [Compound 490, 4-(4-(cyclopropylamino)piperidin-1-yl)-6-fluoro-N-(1-hydroxy-3-methyl-1,3-dihydrobenzo[c]-[1,2]oxaborol-6-yl)-2-methyl-2H-indazole-7-carboxamide 2,2,2-trifluoroacetate]
AC50 [1, 6]: > 10 µM | IC50 [1, 7]: > 10 µM | IC50 [2, 8]: 1 to 10 µM | IC50 [3, 8]: > 10 µM | GI50 [4]: 1 to 10 µM | AC50 [5, 9]: > 10 µM | IC50 [5, 10]: 1 to 10 µM

SMILES: COCc1cc2c(N3CCC(NC4CC4)CC3)ccc(C(=O)Nc3cc4cn(C)nc4cc3OC)n2n1 [Compound 621, 4-[4-(cyclopropylamino)-1-piperidyl]-2-(methoxymethyl)-N-(6-methoxy-2-methyl-indazol-5-yl)-pyrazolo[1,5-a]-pyridine-7-carboxamide]
AC50 [1, 11]: 0.1 to 1 µM | IC50 [1, 12]: 1 to 10 µM | IC50 [2, 13]: 0.1 to 1 µM | IC50 [3, 13]: 1 to 10 µM | GI50 [4]: 0.1 to 1 µM | AC50 [5, 14]: < 0.1 µM | IC50 [5, 15]: 0.1 to 1 µM

Now from value to molecule, other results behind:

IC50 [1, 7]: > 10 µM | IC50 [2, 8]: 1 to 10 µM | IC50 [3, 8]: > 10 µM | GI50 [4]: 1 to 10 µM | IC50 [5, 10]: 1 to 10 µM
SMILES: CCNC1CCN(c2cc(Cl)c(C(=O)Nc3cn4cc(C)nc(C)c4n3)c3nn(C)cc23)CC1 [Compound 348, 6-chloro-N-(6,8-dimethylimidazo-[1,2-a]pyrazin-2-yl)-4-[4-(ethylamino)-1-piperidyl]-2-methyl-indazole-7-carboxamide]
AC50 [1, 6]: > 10 µM | AC50 [5, 9]: 0.1 to 1 µM

IC50 [1, 12]: > 10 µM | IC50 [2, 13]: > 10 µM | IC50 [3, 13]: > 10 µM | GI50 [4]: > 10 µM | IC50 [5, 15]: > 10 µM
SMILES: Cc1cn2cc(NC(=O)c3ccc(N4CCC(NC5CC5)CC4)c4cn(C)nc34)nc2c(Cn2cnc3c(N)ncnc32)n1 [Compound 830]
AC50 [1, 11]: > 10 µM | AC50 [5, 14]: > 10 µM

IC50 [1, 12]: > 10 µM | IC50 [2, 13]: > 10 µM | IC50 [3, 13]: > 10 µM | GI50 [4]: > 10 µM | IC50 [5, 15]: > 10 µM
SMILES: CCNC1C(C)CN(c2ccc(C(=O)Nc3cn4cc(C)nc(C)c4n3)c3nn(C)cc23)CC1C (stereo not shown) [Compound 686]
AC50 [1, 11]: > 10 µM | AC50 [5, 14]: > 10 µM

IC50 [1, 12]: > 10 µM | IC50 [2, 13]: > 10 µM | IC50 [3, 13]: > 10 µM | GI50 [4]: 1 to 10 µM | IC50 [5, 15]: > 10 µM
SMILES: CCNCc1nc(C)cn2cc(NC(=O)c3ccc(N4CCC(NC5CC5)CC4)c4cn(C)nc34)nc12 [Compound 812]
AC50 [1, 11]: > 10 µM | AC50 [5, 14]: > 10 µM

IC50 [1, 12]: < 0.1 µM | IC50 [2, 13]: < 0.1 µM | IC50 [3, 13]: < 0.1 µM | GI50 [4]: < 0.1 µM | IC50 [5, 15]: < 0.1 µM
SMILES: C[C@H]1CN(c2ccc(C(=O)Nc3cc(F)c4nn(C)cc4c3)c3nc(OCCO)sc23)C[C@H](C)N1 [Compound 712, 7-[(3S,5S)-3,5-dimethylpiperazin-1-yl]-N-(7-fluoro-2-methyl-indazol-5-yl)-2-(2-hydroxyethoxy)-1,3-benzothiazole-4-carboxamide]
AC50 [1, 11]: < 0.1 µM | AC50 [5, 14]: < 0.1 µM
